Entries after “also recorded” stand apart in the source; their conditions may differ.
Columns and labels:
Assay type in all cases: in vivo, New Zealand rabbit
[1] = system: cataract induced left eye; assay: Macroscopic examination, cataract induced left eye (cinnamic acid derivatives, Tables 10-11); settings: left eye (cataract induced), macroscopic; for No Abnormality Detected, incidence: animals affected/6
Procedure: (§1) An illustrative ophthalmic formulation for treatment of eye disease is set forth below: The formulations provided herein below are tested in cataract induced New Zealand rabbits, and the results are discussed herein below.
(§2) Cataract was induced by injecting 0.5% Methyl Cellulose, which is replaced by aqueous humor in the rabbit eye (i.e., 0.2 mL of Aqueous humor was withdrawn and the same 0.2 mL of 0.5% Methyl cellulose was injected as a replacement). Cataract was observed within 3-4 days of 0.5% Methyl cellulose replacement. Cataract induction was performed to left eye and right eye was served as a control.
(§3) Rabbits were observed by ophthalmoscope and slit lamp once in three days for cataract confirmation. Intraocular pressure was measured with a tonometer once in three days for the confirmation of glaucoma.

[2] = system: cataract induced left eye: lens; assay: Microscopic observations (histopathology) of lens (Table 12); settings: left eye (cataract induced)
Procedure: as §1, §2
(§4) All surviving animals were euthanized on Day 29 by overdose of Thiopental Sodium. Before scheduled euthanasia, the animals were fasted overnight (water allowed) and terminal body weights were recorded. Animals were subjected to detailed macroscopic observation during necropsy. Both right (untreated/uninduced) and left (treated/induced) eyes were collected and cornea and lens were separated, preserved in Davidson fluid. Cornea and lens selected for histopathological evaluation were processed, embedded and sections were cut at 3-5 μm thickness, Sections were placed on grease-free slides and stained with Hematoxylin and Eosin. A 5-step grading system of minimum, mild, moderate, marked and severe will be used to rank microscopic findings for comparison among groups. Data was compiled based on incidences and severity of changes.

[3] = system: intraocular pressure, induced left eye; assay: Intraocular pressure, tonometer (Table 13); set-up: unit not given beside the values; settings: left eye induced/treated
Procedure: as §2, §3
(§5) Intra-ocular pressures were measured in animals in each group once in three days using a Tonometer. The readings were documented for each eye separately.

[4] = system: cataract induced left eye; assay: Macroscopic examination, cataract induced left eye (Tables 14-15); settings: for cataract efficacy, macroscopic (in words): Table 15; for No Abnormality Detected, incidence: left eye (cataract induced), macroscopic
Procedure: as §1, §2, §3

[5] = system: cataract induced left eye: lens and cornea; assay: Microscopic examination (histopathology) of lens and cornea (Table 16); settings: for cataract efficacy, histopathology (in words): Table 16
Procedure: as §1, §2, §4

[6] = system: intraocular pressure, glaucoma-induced left eye; assay: Intraocular pressure, tonometer (Table 17); settings: for Intraocular pressure, Mean, Left eye: Left (induced) eye; for Intraocular pressure, Mean, Left eye / Intraocular pressure, Mean, Right eye: male, 6 animals/group; for intraocular pressure following treatment / mean intraocular pressure initially measured: induced left eye; for intraocular pressure following treatment: 28-day treatment regimen, 0.5%; for mean intraocular pressure initially measured: six animals, within three days
Procedure: as §2, §3, §5

[7] = system: cataract and intraocular pressure/glaucoma in induced rabbit eye; assay: Overall efficacy in cataract reduction and reducing intraocular pressure; settings: third study; cataract reduction and reducing intraocular pressure, highest to lowest
Procedure: as §1
The following preclinical studies were conducted in rabbit model to test the efficacy of various active ingredients.
as §2, §3

[8] = Day 28, ↓↓ = Significantly low at P ≤ 0.01 compared to respective control

Structure (SMILES): O=C(/C=C/c1ccc(O)c(O)c1)OCCc1ccccc1 [Caffeic Acid Phenyl ethyl Ester, caffeic acid phenylethyl ester]
- Opacity, cornea and red discoloured, with diffuse opacity: Moderate, incidence [1]: 4/6
- Opacity, cornea, diffuse: Minimal, incidence [1]: 1/6
- Opacity, cornea, diffuse: Moderate, incidence [1]: 1/6
- No Abnormality Detected, incidence [1]: 0/6
- Within Normal Histological Limits, incidence [2]: 0/6
- Epithelial proliferation, incidence ([2]; lens): 6/6
- Lenticular Degeneration, incidence ([2]; lens): 6/6
- Liquefaction, incidence ([2]; lens): 6/6
- Epithelial proliferation: Marked, incidence ([2]; lens, number of animals): 1
- Epithelial proliferation: Mild, incidence ([2]; lens, number of animals): 3
- Epithelial proliferation: Minimal, incidence ([2]; lens, number of animals): 2
- Liquefaction: Mild, incidence ([2]; lens, number of animals): 2
- Liquefaction: Moderate, incidence ([2]; lens, number of animals): 4
- Intraocular Pressure, mean ([3]; Day 3): 88.07
- Intraocular Pressure, mean ([3]; Day 6): 84.95
- Intraocular Pressure, mean ([3]; Day 9): 84.67
- Intraocular Pressure, mean ([3]; Day 12): 55.95
- Intraocular Pressure, mean ([3]; Day 15): 42.80
- Intraocular Pressure, mean ([3]; Day 18): 42.18
- Intraocular Pressure, mean ([3]; Day 21): 40.93
- Intraocular Pressure, mean ([3]; Day 24): 39.67
- Intraocular Pressure, mean ([3]; Day 27): 36.27
- Intraocular Pressure, mean ([3]; Day 30): 39.42
- Intraocular Pressure, mean ([3]; Day 33): 41.85↓↓

Structure (SMILES): O=C(/C=C/c1ccc(O)c(O)c1)NCCc1ccccc1 [Caffeic Acid Phenylethyl Amide, caffeic acid phenylethyl amide]
- Opacity, cornea and red discoloured, with diffuse opacity: Moderate, incidence [1]: 1/6
- Opacity, cornea, diffuse: Mild, incidence [1]: 2/6
- Opacity, cornea, diffuse: Minimal, incidence [1]: 3/6
- No Abnormality Detected, incidence [1]: 0/6
- Within Normal Histological Limits, incidence [2]: 0/6
- Epithelial proliferation, incidence ([2]; lens): 2/6
- Epithelial proliferation: Absent, incidence ([2]; lens): 4/6
- Lenticular Degeneration, incidence ([2]; lens): 5/6
- Liquefaction, incidence ([2]; lens): 5/6
- Liquefaction: Absent, incidence ([2]; lens): 1/6
- Epithelial proliferation: Mild, incidence ([2]; lens, number of animals): 2
- Liquefaction: Mild, incidence ([2]; lens, number of animals): 2
- Liquefaction: Minimal, incidence ([2]; lens, number of animals): 3
- Intraocular Pressure, mean ([3]; Day 3): 86.65
- Intraocular Pressure, mean ([3]; Day 6): 79.88
- Intraocular Pressure, mean ([3]; Day 9): 78.77
- Intraocular Pressure, mean ([3]; Day 12): 72.72
- Intraocular Pressure, mean ([3]; Day 15): 50.78
- Intraocular Pressure, mean ([3]; Day 18): 49.95
- Intraocular Pressure, mean ([3]; Day 21): 45.67
- Intraocular Pressure, mean ([3]; Day 24): 49.77
- Intraocular Pressure, mean ([3]; Day 27): 36.27
- Intraocular Pressure, mean ([3]; Day 30): 25.85
- Intraocular Pressure, mean ([3]; Day 33): 36.68↓↓

Structure (SMILES): O=C(O[C@@H]1Cc2c(O)cc(O)cc2O[C@@H]1c1cc(O)c(O)c(O)c1)c1cc(O)c(O)c(O)c1 [Epigallocatechin Gallate, (2R,3R)-2-(3,4,5-trihydroxyphenyl)-3,4-dihydro-1(2H)-benzopyran-3,5,7-triol 3-(3,4,5-trihydroxy benzoate)]
- cataract efficacy, macroscopic (in words) [4]: complete recovery in all 6 animals, with no observable cataracts
- No Abnormality Detected, incidence [4]: 6/6
- cataract efficacy, histopathology (in words) [5]: fully restored, or regenerated in all 6 out of 6 animals, transitioning from severe degeneration to a milder state; also recorded: Only one animal exhibited mild corneal inflammation
- Cornea, Inflammation: Mild, incidence ([5]; left eye induced): 1/6
- Lens, Liquefaction: Mild, incidence ([5]; left eye induced): 6/6
- Intraocular pressure, Mean, Left eye ([6]; Day 3): 29.72 mmHg
- Intraocular pressure, Mean, Left eye ([6]; Day 6): 33.06 mmHg
- Intraocular pressure, Mean, Left eye ([6]; Day 9): 26.56 mmHg
- Intraocular pressure, Mean, Left eye ([6]; Day 12): 32.50 mmHg
- Intraocular pressure, Mean, Left eye ([6]; Day 15): 26.39 mmHg
- Intraocular pressure, Mean, Left eye ([6]; Day 18): 28.94 mmHg
- Intraocular pressure, Mean, Left eye ([6]; Day 21): 27.11 mmHg
- Intraocular pressure, Mean, Left eye ([6]; Day 25): 25.56 mmHg
- Intraocular pressure, Mean, Left eye [6, 8]: 20.00↓↓ mmHg
- Intraocular pressure, Mean, Right eye ([6]; Day 3): 18.11 mmHg
- Intraocular pressure, Mean, Right eye ([6]; Day 6): 16.94 mmHg
- Intraocular pressure, Mean, Right eye ([6]; Day 9): 16.78 mmHg
- Intraocular pressure, Mean, Right eye ([6]; Day 12): 17.00 mmHg
- Intraocular pressure, Mean, Right eye ([6]; Day 15): 12.56 mmHg
- Intraocular pressure, Mean, Right eye ([6]; Day 18): 16.61 mmHg
- Intraocular pressure, Mean, Right eye ([6]; Day 21): 16.06 mmHg
- Intraocular pressure, Mean, Right eye ([6]; Day 25): 18.17 mmHg
- Intraocular pressure, Mean, Right eye ([6]; Day 28): 16.11 mmHg
- intraocular pressure following treatment [6]: 20.00 mmHg
- mean intraocular pressure initially measured [6]: 29.72 mmHg
- overall efficacy / order of efficacy (in words) [7]: outstanding efficacy in reducing cataracts and also demonstrated a significant capability to address glaucoma; also recorded: Caffeic Acid G3>Epigallocatechin Gallate G4>Encapsulated Feruloyl Tyramine G5>Ferulic Acid G6>Rosmarinic Acid+Caffeic Acid G2

Structure (SMILES): COc1cc(/C=C/C(=O)O)ccc1O [Ferulic acid]
- cataract efficacy, macroscopic (in words) [4]: complete recovery from cataracts in all 6 animals
- No Abnormality Detected, incidence [4]: 6/6
- cataract efficacy, histopathology (in words) [5]: minimal to moderate lenticular degeneration
- Lens, Liquefaction: Mild, incidence ([5]; left eye induced): 4/6
- Lens, Liquefaction: Minimal, incidence ([5]; left eye induced): 1/6
- Lens, Liquefaction: Moderate, incidence ([5]; left eye induced): 1/6
- Intraocular pressure, Mean, Left eye ([6]; Day 3): 30.39 mmHg
- Intraocular pressure, Mean, Left eye ([6]; Day 6): 28.39 mmHg
- Intraocular pressure, Mean, Left eye ([6]; Day 9): 28.28 mmHg
- Intraocular pressure, Mean, Left eye ([6]; Day 12): 25.33 mmHg
- Intraocular pressure, Mean, Left eye ([6]; Day 15): 26.00 mmHg
- Intraocular pressure, Mean, Left eye ([6]; Day 18): 26.56 mmHg
- Intraocular pressure, Mean, Left eye ([6]; Day 21): 23.22 mmHg
- Intraocular pressure, Mean, Left eye ([6]; Day 25): 21.72 mmHg
- Intraocular pressure, Mean, Left eye [6, 8]: 23.67↓↓ mmHg
- Intraocular pressure, Mean, Right eye ([6]; Day 3): 17.28 mmHg
- Intraocular pressure, Mean, Right eye ([6]; Day 6): 16.89 mmHg
- Intraocular pressure, Mean, Right eye ([6]; Day 9): 16.89 mmHg
- Intraocular pressure, Mean, Right eye ([6]; Day 12): 17.56 mmHg
- Intraocular pressure, Mean, Right eye ([6]; Day 15): 14.94 mmHg
- Intraocular pressure, Mean, Right eye ([6]; Day 18): 14.94 mmHg
- Intraocular pressure, Mean, Right eye ([6]; Day 21): 17.06 mmHg
- Intraocular pressure, Mean, Right eye ([6]; Day 25): 17.61 mmHg
- Intraocular pressure, Mean, Right eye ([6]; Day 28): 17.28 mmHg
- intraocular pressure following treatment [6]: 23.67 mmHg
- mean intraocular pressure initially measured [6]: 30.39 mmHg
- overall efficacy / order of efficacy (in words) [7]: Caffeic Acid G3>Epigallocatechin Gallate G4>Encapsulated Feruloyl Tyramine G5>Ferulic Acid G6>Rosmarinic Acid+Caffeic Acid G2

From US20260355137A1, “NOVEL OPHTHALMIC FORMULATION” (FERTIS INDIA PVT LTD, priority 2022, published 2026)
